Reference: patent US11207319B2, “Method for the treatment of bladder cancer” (Cipla Limited, priority 2015, dated 2021)
Where two headings read alike, the source gives them in different places.

Columns and labels:
[1] = tested on: BXF T24; assay: In vitro combination study, 3D clonogenic assay, 5x5 matrix; format: cell-based; details: Homo sapiens; monotherapy controls of 5x5 matrix, BXF T24, soft agar; read-out: IC50, colony formation, single agent
Protocol: (§1) Summary: Terconazole was tested alone and in combination with cisplatin in order to investigate the ability to inhibit tumor cell growth of bladder cancer cell lines in a 5×5 matrix combination format. Efficacy of the combinations was assessed by measuring anchorage-independent growth and in vitro tumor colony formation using a 3D clonogenic assay in cell lines BXF 1036L, BXF 1218L, and BXF T24.
(§2) The objective of this study was to assess anti-tumor efficacy of CIPDE033 and CIPDE034 in combination with cisplatin in a 5×5 matrix combination format against various bladder cancer cell lines. Efficacy of the combinations was assessed by measuring anchorage-independent growth and in vitro tumor colony formation using a 3D clonogenic assay in cell lines BXF 1036L, BXF 1218L, and BXF T24. […]
(§3) Cultivation of Cell Lines: Cell lines were routinely passaged once or twice weekly and maintained in culture for up to 20 passages. […] The percentage of viable cells was determined in a Neubauer-hemocytometer using trypan blue exclusion.
(§4) 3D Clonogenic Assay Procedure: The clonogenic assay was carried out in a 96 well plate format using ultra low attachment plates. […] Cultures were incubated at 37° C. and 7.5% CO2 in a humidified atmosphere for 8 to 13 days and monitored closely for colony growth using an inverted microscope. […]

[2] = tested on: BXF 1036L; assay: as above; format: cell-based; details: Homo sapiens, monotherapy controls of 5x5 matrix, soft agar, read-out: IC50, colony formation, single agent
Protocol: as §1, §2, §3, §4

[3] = tested on: BXF T24; assay: In vitro 2D assay, CellTiter-Blue Cell Viability Assay; format: cell-based; details: Homo sapiens, BXF T24, 96 h, read-out: Absolute IC50 values
Protocol: (§5) The in-vitro anti-tumor activity of terconazole was assessed in five selected human bladder cancer cell lines. The test compounds were applied at 9 concentrations in half-log increments. As a reference compound cisplatin was tested in parallel. Cells were treated for 96 h with the test compounds. Anti-tumor activity was assessed by using the CellTiter-Blue® Cell Viability Assay. Potency is expressed as absolute IC50 and relative IC50 values, calculated by non-linear regression analysis.
(§6) Tumor Cell Lines: In the present study the human bladder cancer cell lines BXF 1036, BXF 1218, BXF 1352, 5637 and T24 were used. BXF 1036, BXF 1218 and BXF 1352 were established at Oncotest from the corresponding human patient derived xenograft. T24 was purchased from ATCC (Rockville, Md., USA) and 5637 was from DSMZ (Braunschweig, Germany). Authenticity of cell lines was confirmed at the DSMZ by STR (short tandem repeat) analysis, a PCR based DNA-fingerprinting methodology. Cell lines were routinely passaged once or twice weekly and maintained in culture for up to 20 passages. All cells were grown at 37° C. in a humidified atmosphere with 5% CO2 in RPMI 1640 medium (25 mM HEPES, with L-glutamine, #FG1385, Biochrom, Berlin, Germany) supplemented with 10% (v/v) fetal calf serum (Sigma, Taufkirchen, Germany) and 0.1 mg/mL gentamicin (Life Technologies, Karlsruhe, Germany).
(§7) Cell Proliferation Assay: The CellTiter-Blue® Cell Viability Assay (#G8081, Promega) was used according to manufacturer's instructions. Briefly, cells were harvested from exponential phase cultures, […] on the cell line's growth rate. After a 24 h recovery period to allow the cells to resume exponential growth, test compounds were added. Compounds were applied at 9 concentrations in half-log increments in duplicate and treatment continued for 96 h. After 96 h treatment of cells, 20 μL/well CellTiter-Blue® reagent was added.
(§8) Following an incubation period of up to four hours, fluorescence (FU) was measured by using the Enspire Multimode Plate Reader (excitation k=531 nm, emission k=615 nm). For calculations, the mean values of duplicate/sixfold (untreated control) data were used. Sigmoidal concentration-response curves were fitted to the data points (T/C values) obtained for each cell line using 4 parameter non-linear curve fit (Oncotest Warehouse Software).

[4] = tested on: BXF 1218; assay: as above; format: cell-based; details: Homo sapiens, BXF 1218, 96 h, read-out: Absolute IC50 values
Protocol: as §5, §6, §7, §8

[5] = tested on: BXF 1352; assay: as above; format: cell-based; details: Homo sapiens, BXF 1352, 96 h, read-out: Absolute IC50 values
Protocol: as §5, §6, §7, §8

[6] = tested on: BXF 5637; assay: as above; format: cell-based; details: Homo sapiens, BXF 5637, 96 h, read-out: Absolute IC50 values
Protocol: as §5, §6, §7, §8

[7] = tested on: BXF 1036; assay: as above; format: cell-based; details: Homo sapiens, BXF 1036, 96 h, read-out: Absolute IC50 values
Protocol: as §5, §6, §7, §8

[8] = tested on: HT1376; assay: In vitro anticancer activity, bladder carcinoma efficacy models (cytotoxicity/clonogenic); format: cell-based, human; details: HT1376, varied concentrations
Protocol: (§9) Human bladder cancer cell lines HTB-5, HT-1376 and T-24 were purchased from American Type Culture Collection, USA. Cell lines HTB-5 and HT1376 were routinely cultured in Eagle's Minimum Essential Medium with 10% fetal bovine serum and T-24 in McCoy's 5A medium with 10% fetal bovine serum. All cell lines were maintained at 37° C. in a humidified atmosphere containing 5% CO2.
(§10) In vitro cytotoxicity assay: Cells were plated in 96-well cell culture plates (4×10^3 cells/well) and were treated with drugs at various concentrations. Treated cells were maintained at 37° C. in 5% CO2 for 48 and 72 hrs. After the incubation antiproliferative activity of test compounds was measured using ProMega Cell Titer aqueous one solution cell proliferation assay kit, viz. CellTiter 96® AQueous One Solution Reagent. Cells were incubated for 1-4 hours at 37° C., 5% CO2 incubator and absorbance was measured at 490 nm using a plate reader. IC50 values were determined by plotting compound concentration versus cell viability.
(§11) Clonogenic assay: bladder cancer cell lines viz HTB-5, HT-1376 and T-24 cells were plated at different densities i.e. 300 cells/well and 400 cells/well respectively in 3 ml volume per well into six-well plates and incubated overnight at 37° C. in a 5% CO2 incubator. […] Medium with drug was then replaced with medium without drug and plates were further incubated till visible colonies appeared (approximately for 12-14 days). Cells were then fixed with methanol:glacial acetic acid (2:1) and stained with 0.5% crystal violet. After staining for 2-3 min, plates were rinsed twice with D/W, dried and images were captured.

[9] = tested on: HTB-5; assay: as above; format: cell-based, human; details: HTB-5, varied concentrations
Protocol: as §9, §10, §11

[10] = tested on: T-24; assay: as above; format: cell-based, human; details: T-24, varied concentrations
Protocol: as §9, §10, §11

[11] = target: T1, rat spleen HO-1 (Rattus norvegicus, UniProt P06762); details: reported in literature; read-out: IC50, inhibition of rat spleen HO-1 activity; cited from earlier work
T1 construct: host or cells: rat spleen
T1 sequence (P06762 1-289): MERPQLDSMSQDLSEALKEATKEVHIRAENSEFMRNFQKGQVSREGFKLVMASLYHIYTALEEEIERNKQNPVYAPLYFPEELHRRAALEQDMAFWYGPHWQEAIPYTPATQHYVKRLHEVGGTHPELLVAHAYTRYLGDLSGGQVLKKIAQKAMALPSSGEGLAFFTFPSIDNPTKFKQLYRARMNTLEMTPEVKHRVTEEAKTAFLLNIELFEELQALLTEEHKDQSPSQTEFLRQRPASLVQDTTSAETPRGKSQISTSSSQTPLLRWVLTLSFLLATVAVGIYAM

[12] = tested on: five selected human bladder cancer cell lines; assay: In vitro 2D assay, CellTiter-Blue Cell Viability Assay, mean over panel; format: cell-based; details: 96 h, read-out: Geometric Mean Absolute IC50 values
Protocol: as §5
as §6, with “All cells were grown at 37° C. in a humidified atmosphere with 5% CO2 in RPMI 1640 medium (25 mM HEPES, with L-glutamine, #FG1385, Biochrom, Berlin, Germany) supplemented with 10% (v/v) fetal calf serum (Sigma, Taufkirchen, Germany) and 0.1 mg/mL gentamicin (Life Technologies, Karlsruhe, Germany).” left out
Following an incubation period of up to four hours, fluorescence (FU) was measured by using the Enspire Multimode Plate Reader (excitation k=531 nm, emission k=615 nm). […]

[13] = tested on: BXF 1218; assay: In vitro 3D clonogenic assay (colony formation in semi-solid medium); format: cell-based; details: Homo sapiens, read-out: Absolute IC50 values
Protocol: (§12) In the present study, terconazole and cisplatin were evaluated for their ability to inhibit anchorage independent growth and ex vivo colony formation of tumor cells in semi-solid medium. The compounds were tested against 5 human tumor cell lines of bladder cancer. Test concentrations ranged, from 0.0316 μM to 316.2 μM (terconazole), or from 0.00316 μM to 100 μM (cisplatin).
(§13) Terconazole and the reference compound cisplatin were investigated for anticancer activity ex vivo in five human tumor cell lines of bladder cancer. Tests were carried out using a 3D clonogenic assay in 96-well format with image based read-out. The aim of the study was to investigate antitumor potency and tumor type selectivity of the compound.
(§14) Clonogenic Assay Procedure: The clonogenic assay was carried out in a 96 well plate format using ultra low attachment plates. For each test, cells were prepared as described above and assay plates were prepared as follows: each test well contained a layer of semi-solid medium with tumor cells (50 and a second layer of medium supernatant with or without test compound (100 The cell layer consisted of 2·10^3 to 3·10^3 tumor cells per well, which were seeded in 50 μL/well cell culture medium (IMDM, supplemented with 20% (v/v) fetal calf serum, 0.01% (w/v) gentamicin, and 0.4% (w/v) agar. After 24 hours the test compounds were added after serial dilution in cell culture medium, and left on the cells for the duration of the experiment (continuous exposure, 100 μl drug overlay). Every plate included six untreated control wells and drug-treated groups in duplicate at 9 concentrations. Cultures were incubated at 37° C. and 7.5% CO2 in a humidified atmosphere for 8 to 13 days and monitored closely for colony growth using an inverted microscope. Within this period, ex vivo tumor growth led to the formation of colonies with a diameter of >50 μm. At the time of maximum colony formation, counts were performed with an automatic image analysis system (Bioreader 5000-Wa Biosys GmbH). 48 hours prior to evaluation, vital colonies were stained with a sterile aqueous solution of 2-(4-iodophenyl)-3-(4-nitrophenyl)-5-phenyltetrazolium chloride (1 mg/ml, 100 μl/well)

[14] = tested on: BXF 1352; assay: as above; format: cell-based; details: Homo sapiens, read-out: Absolute IC50 values
Protocol: as §12, §13, §14

[15] = tested on: BXF 5637; assay: as above; format: cell-based; details: Homo sapiens, read-out: Absolute IC50 values
Protocol: as §12, §13, §14

[16] = tested on: BXF 1036; assay: as above; format: cell-based; details: Homo sapiens, read-out: Absolute IC50 values
Protocol: as §12, §13, §14

[17] = tested on: BXF T24; assay: as above; format: cell-based, human; details: read-out: Absolute IC50 values
Protocol: as §12, §13
Clonogenic Assay Procedure: The clonogenic assay was carried out in a 96 well plate format using ultra low attachment plates. […] Cultures were incubated at 37° C. and 7.5% CO2 in a humidified atmosphere for 8 to 13 days and monitored closely for colony growth using an inverted microscope. […]

[18] = tested on: 5 human tumor cell lines of bladder cancer; assay: In vitro 3D clonogenic assay, panel summary; format: cell-based; details: for IC50: Homo sapiens
Protocol: as §12, §13, §14

Compound: CC(C)N1CCN(c2ccc(OC[C@@H]3CO[C@@](Cn4cncn4)(c4ccc(Cl)cc4Cl)O3)cc2)CC1 (racemic) [Terconazole]
- IC50 [1]: 59.8 µM
- IC50 [2]: 27.1 µM
- IC50 [3]: 41.5 µM
- IC50 [4]: 46.9 µM
- IC50 [5]: 45.9 µM
- IC50 [6]: 38.4 µM
- IC50 [7]: 29.4 µM
- anticancer activity in vitro [8]: significant anticancer activity
- anticancer activity in vitro [9]: significant anticancer activity
- anticancer activity in vitro [10]: significant anticancer activity
- IC50 [11]: 0.41 ± 0.01 µM
- IC50 [12]: 39.9 µM
- IC50 [13]: 40.3 µM
- IC50 [14]: 36.6 µM
- IC50 [15]: 30.8 µM
- IC50 [16]: 29.7 µM
- IC50 ([17]; Homo sapiens): 33.1 µM
- Bottom plateaus of the concentration-effect curves ([18]; 3D clonogenic assay, responding tumor models): 0%
- IC50 ([18]; read-out: mean relative IC50 value): 33.5 µM
- IC50 ([18]; 3D clonogenic assay, colony formation, read-out: IC50 values, range over all bladder cancer cell lines tested): 29.6 to 40.1 µM
- IC50 ([18]; 3D clonogenic assay, five cell lines, read-out: Geometric Mean Absolute IC50 values): 33.9 µM

Compound: N.N.[Cl][Pt][Cl] [Cisplatin, cisplatin]
- IC50 [17]: 53 µM
